In patent US20110189094A1, “BIOLOGICAL METHOD FOR IN VIVO TRACKING OF MOLECULES AFFECTING CELLULAR MIGRATION” (UNIVERSIDAD DE CHILE, priority 2008, published 2011):

What was measured:
[1] = system: posterior lateral line primordium; assay: Primordium migration with claudin-B primordium marker in zebra fish embryos; format: in vivo, zebra fish (Danio rerio); conditions: Example 2, incubation 22 hpf until 36 hpf
Description: (§1) Zebra fish (Danio rerio) are used, kept in a 14/10-hour light/darkness cycle. Embryos are recovered after natural fish mating and they grow in Petri plates at 28° C. in E3 medium (5 mM NaCl, 0.17 mM KCl, 0.33 mM CaCl2, 0.33 mM MgSO4, and 0.1% Methylene Blue) until the reach the development stadium suitable for the test, which is determined according to Kimmel et al., (1995). The larval stadiums are designated in post fertilization hours (hpf) or post fertilization days (dpf).
(§2) In this way, we have evaluated our hypothesis of the Fenritinide effect on dendritic cells, taking our invention as the test model. Zebra fish embryos were incubated in accordance with the basic conditions described in Example 1, but in the presence of Fenritinide since the time when the posterior lateral line primordium starts to migrate (22 hours post fecundation (hpf) stadium), until the LLP system is mature (36 hpf stadium) and is easily visualized with the DiAsp tinction. […] We checked whether the absence of mature neuromasts is caused by migration blocking by means of in situ hybridization using the claudin-B (anti-claudinB antibody, detected with immunofluorescence) primordium marker.

lateral line primordium = assay: Lateral line primordium migration in CldnB::GFP transgenic zebra fish larvae (GFP fluorescence); format: in vivo, zebra fish (Danio rerio); conditions: 20 μM in medium, 22 hpf until 36 hpf
Description: as §1
In this first example, in each cup on a plate with 24 cups with 2 ml of E3 medium each, we placed from 3-10 transgenic embryos that express the GFP gene under the control of the CldnB promoter (CldnB::GFP; kindly donated by Dr. Darren Gilmour (EMBL, Heidelberg, Germany). The agents subjected to tests (N˜(4˜hydroxyphenyl)retinamide (Fenretinide, 4-HPR), retinaldehide 9-cis, retinaldehide all-trans and only with the control vehicle: DMSO) were added to the medium at a final concentration of 20 μM when the embryos reached the 22 hpf stadium and the fish were kept in the medium plus the agent until 36 hpf. The GFP mark in the migratory primordium was observed every 4-6 hours in order to monitor its progress. At 36 hpf, we fixed one half of the fish (5 from each cup) with 4% paraformaldehyde dissolved in PBS. We observe the fluorescence of GFP (indicating the primordium position) and evaluated whether it migrated properly or not (FIG. 1).

CCR7 = assay: Expression of CCR7 in dendritic cells in maturation; format: cell-based
Text: (§3) Dendritic cells, when entering the maturation process, start to express chemokine receptors (CCR7, CXCR4) that direct their migration towards the secondary lymphoid organs. We have recently discovered that Fenritinide {4-HPR), a molecule utilized in “clinical trials” against breast cancer and neuroblastoma, inhibits the expression of CCR7 and CXCR4 in dendritic cells in maturation {Villablanca, Allende and collaborators; manuscript in preparation). […] In this way, Fenritinide would produce a blocking of the mature dendritic cells in the periphery, preventing their migration and arrival at the secondary lymphoid organs, affecting in this way the development of an immune response to pathogens or towards the tumoral cells proper.

neuromasts = assay: DiAsp tinction of mature neuromasts of the posterior lateral line in zebra fish embryos; format: in vivo, zebra fish (Danio rerio)
Description: as §1, §2
(§4) Embryos in the 22 hpf stadium were incubated between 26 and 28° C., in the absence or presence of either PGD2 or 15-deoxy-PJE2, permitting the development of embryos up to the 36 hpf stadium, at which time we checked the primordium advance both in the treated embryos and in the (untreated) control embryos.

CD80 = assay: Expression of CD80 in dendritic cells; format: cell-based
Text: as §3

CD83 = assay: Expression of CD83 in dendritic cells; format: cell-based
Text: as §3

CD86 = assay: Expression of CD86 in dendritic cells; format: cell-based
Text: as §3

CXCR4 [2] = assay: Expression of CXCR4 in dendritic cells in maturation; format: cell-based
Text: as §3

CXCR4 [3] = conditions: literature, Scandelia et al. 2002; cited from earlier work
LLP primordium = LLP primordium advance in zebra fish embryos incubated with prostaglandins; format: in vivo, zebra fish (Danio rerio)
Description: as §1, §4

dendritic cells = assay: Migration of dendritic cells; format: cell-based; conditions: negative control
Text: as §3

human dendritic cells = conditions: literature, Nencioni et al. 2002; cited from earlier work
[4] = Example 3, 10 μM, 22 hpf up to 36 hpf

**Q.** Which “primordium migration (claudin-B primordium marker)” value [1] does the source give for CC1=C(/C=C/C(C)=C/C=C/C(C)=C/C(=O)Nc2ccc(O)cc2)C(C)(C)CCC1 [4-HPR, N˜(4˜hydroxyphenyl)retinamide] here?
**A.** blocking of the migratory primordium at the beginning of its migration

**Q.** And the “migration of the lateral line primordium (GFP fluorescence)” value (from here on “migration of the lateral line primordium”) (lateral line primordium)?
**A.** delay in the migration

**Q.** What about the “expression of CCR7” value (CCR7) of the same compound?
**A.** inhibits

**Q.** And the “DiAsp tinction of mature neuromasts” value (neuromasts; Example 2, incubation 22 hpf until 36 hpf)?
**A.** negative

**Q.** What about the “inhibition of CD80” value (CD80) of the same compound?
**A.** does not inhibit

**Q.** What about the “inhibition of CD83” value (CD83) of the same compound?
**A.** does not inhibit

**Q.** What about the “inhibition of CD86” value (CD86) of the same compound?
**A.** does not inhibit

**Q.** What about the “expression of CXCR4” value (CXCR4 [2]) of the same compound?
**A.** inhibits

**Q.** What does the source list for CCCCC[C@H](O)/C=C/[C@H]1[C@H](O)CC(=O)[C@@H]1C/C=C\CCCC(=O)O [PGE2]?
**A.** DiAsp tinction of neuromasts (neuromasts; Example 3, 22 hpf up to 36 hpf, 26-28° C., concentration not given): dyed with DiAsp; expression of CXCR4 in dendritic cells (CXCR4 [3]): increments; LLP primordium migration (LLP primordium; Example 3, 22 hpf up to 36 hpf, concentration not given): migrated normally

**Q.** Which “migration of the lateral line primordium” value (lateral line primordium) does the source give for CC1=C(/C=C/C(C)=C\C=C\C(C)=C\C=O)C(C)(C)CCC1 [9cRA, 9-cis retinaldehyde] here?
**A.** normal migration

**Q.** Which “inhibition of the migration of dendritic cells” value (dendritic cells) does the source give for CC1=C(/C=C/C(C)=C/C=C/C(C)=C/C(=O)O)C(C)(C)CCC1 [retinoic acid] here?
**A.** not capable of inhibiting

**Q.** What about the “expression of CXCR4” value (CXCR4 [2]) of the same compound?
**A.** not capable of inhibiting

**Q.** For CCCCC[C@H](O)/C=C/[C@H]1C(=O)C[C@H](O)[C@@H]1C/C=C\CCCC(=O)O [PGD2], which “DiAsp tinction of neuromasts” value (neuromasts; [4]) is on record?
**A.** negative

**Q.** And the LLP primordium migration (LLP primordium; [4])?
**A.** considerably slower

**Q.** What about the “migration through CXCR4 in human dendritic cells” value (human dendritic cells) of the same compound?
**A.** inhibit migration

**Q.** With retinaldehide all-trans [atRA] as the compound, how does the “migration of the lateral line primordium” value (lateral line primordium) read?
**A.** normal migration
